According to US20070010671A1, “Novel quinazoline derivatives and methods of treatment related to the use thereof” (priority 2003, published 2007):

Target: MCH receptor (Homo sapiens, UniProt Q99705)
Assay: High throughput functional screening FLIPR/FDSS6000: inhibition of MCH-evoked intracellular Ca2+ changes
Type: cell-based
Conditions: class by percent of control at 10^-7 M or IC50
Summary of the method: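 Antagonism is measured as inhibition of the intracellular calcium rise triggered by 50 nM MCH in cells bearing a constitutively active, non-endogenous form of the receptor. Cells are dye-loaded with Fluo4-AM and exposed to compound for 3 min at 37° C before agonist addition.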

Row | SMILES | class
1 | CN(C)c1nc(N[C@H]2CC[C@@H](CNC(=S)Nc3cccc(C(F)(F)F)c3)CC2)nc2ccccc12 [compound 618] | 3 (Class 3: The value of percent of control at 10^−7 M was more than 60% or the value of IC50 was more than 200 nM.)
2 | CN(C)c1nc(N[C@H]2CC[C@@H](CNC(=S)NCCc3ccc(Cl)cc3)CC2)nc2ccccc12 [compound 666] | 3 (Class 3: The value of percent of control at 10^−7 M was more than 60% or the value of IC50 was more than 200 nM.)
3 | CN(C)c1nc(N[C@H]2CC[C@@H](CNC(=S)NCc3cccc(Cl)c3)CC2)nc2ccccc12 [compound 729] | 3 (Class 3: The value of percent of control at 10^−7 M was more than 60% or the value of IC50 was more than 200 nM.)
4 | CN(C)c1nc(N[C@H]2CC[C@@H](CNC(=O)NC34CC5CC(CC(C5)C3)C4)CC2)nc2ccccc12 (relative stereo) [compound 406] | 3 (Class 3: The value of percent of control at 10^−7 M was more than 60% or the value of IC50 was more than 200 nM.)
5 | CC(C)c1ccc(NC(=S)N[C@H]2CC[C@@H](Nc3nc(N(C)C)c4ccccc4n3)CC2)cc1 [compound 275, N-(cis-4-{[4-(dimethylamino)quinazolin-2-yl]amino}cyclohexyl)-N′-(4-isopropylphenyl)thiourea] | 2 (Class 2: The value of percent of control at 10^−7 M was from 40% to 60% or the value of IC50 was from 50 nM to 200 nM.)
6 | CN(C)c1nc(N[C@H]2CC[C@@H](CNC(=O)Nc3ccc(OC(F)(F)F)cc3)CC2)nc2ccccc12 [compound 752] | 3 (Class 3: The value of percent of control at 10^−7 M was more than 60% or the value of IC50 was more than 200 nM.)
7 | CN(C)c1nc(N[C@H]2CC[C@@H](CNC(=O)Nc3ccccc3I)CC2)nc2ccccc12 [compound 500, N-[(cis-4-{[4-(dimethylamino)quinazolin-2-yl]amino}cyclohexyl)methyl]-N′-(2-iodophenyl)urea] | 1 (Class 1: The value of percent of control at 10^−7 M was less than 40% or the value of IC50 was less than 50 nM.)
8 | CN(C)c1nc(N[C@H]2CC[C@@H](CNC(=O)Nc3cccc(C#N)c3)CC2)nc2ccccc12 [compound 418, N-(3-cyanophenyl)-N′-[(cis-4-{[4-(dimethylamino)quinazolin-2-yl]amino}cyclohexyl)methyl]urea] | 2 (Class 2: The value of percent of control at 10^−7 M was from 40% to 60% or the value of IC50 was from 50 nM to 200 nM.)
9 | COc1ccc(Cl)cc1NC(=S)N[C@H]1CC[C@@H](Nc2nc(N(C)C)c3ccccc3n2)CC1 [compound 282] | 3 (Class 3: The value of percent of control at 10^−7 M was more than 60% or the value of IC50 was more than 200 nM.)
10 | CN(C)c1nc(N[C@H]2CC[C@@H](NC(=S)NCc3cccc4ccccc34)CC2)nc2ccccc12 [compound 289, N-(cis-4-{[4-(dimethylamino)quinazolin-2-yl]amino}cyclohexyl)-N′-(1-naphthylmethyl)thiourea] | 1 (Class 1: The value of percent of control at 10^−7 M was less than 40% or the value of IC50 was less than 50 nM.)
11 | COC(=O)c1ccc(NC(=O)NC[C@H]2CC[C@@H](Nc3nc(N(C)C)c4ccccc4n3)CC2)cc1 [compound 574] | 3 (Class 3: The value of percent of control at 10^−7 M was more than 60% or the value of IC50 was more than 200 nM.)
12 | CN(C)c1nc(N[C@H]2CC[C@@H](NC(=S)Nc3cccc4nsnc34)CC2)nc2ccccc12 [compound 398] | 3 (Class 3: The value of percent of control at 10^−7 M was more than 60% or the value of IC50 was more than 200 nM.)
13 | CN(C)c1nc(N[C@H]2CC[C@@H](NC(=S)NCCc3ccc(Cl)cc3)CC2)nc2ccccc12 [compound 242] | 2 (Class 2: The value of percent of control at 10^−7 M was from 40% to 60% or the value of IC50 was from 50 nM to 200 nM.)
14 | CN(C)c1nc(N[C@H]2CC[C@@H](CNC(=S)NCc3ccc(Cl)cc3Cl)CC2)nc2ccccc12 [compound 718] | 2 (Class 2: The value of percent of control at 10^−7 M was from 40% to 60% or the value of IC50 was from 50 nM to 200 nM.)
15 | CCNC(=O)NC[C@H]1CC[C@@H](Nc2nc(N(C)C)c3ccccc3n2)CC1 [compound 433] | 3 (Class 3: The value of percent of control at 10^−7 M was more than 60% or the value of IC50 was more than 200 nM.)
16 | CCc1cccc(C(C)C)c1NC(=O)NC[C@H]1CC[C@@H](Nc2nc(N(C)C)c3ccccc3n2)CC1 [compound 493, N-[(cis-4-{[4-(dimethylamino)quinazolin-2-yl]amino}cyclohexyl)methyl]-N′-(2-ethyl-6-isopropylphenyl)urea] | 1 (Class 1: The value of percent of control at 10^−7 M was less than 40% or the value of IC50 was less than 50 nM.)
17 | CN(C)c1nc(N[C@H]2CC[C@@H](CNC(=S)Nc3ccc([N+](=O)[O-])cc3)CC2)nc2ccccc12 [compound 613, N-[(cis-4-{[4-(dimethylamino)quinazolin-2-yl]amino}cyclohexyl)methyl]-N′-(4-nitrophenyl)thiourea] | 2 (Class 2: The value of percent of control at 10^−7 M was from 40% to 60% or the value of IC50 was from 50 nM to 200 nM.)
18 | CN(C)c1nc(N[C@H]2CC[C@@H](NC(=S)NCCN3CCOCC3)CC2)nc2ccccc12 [compound 388] | 3 (Class 3: The value of percent of control at 10^−7 M was more than 60% or the value of IC50 was more than 200 nM.)
19 | CN(C)c1nc(N[C@H]2CC[C@@H](CNC(=O)Nc3c(Cl)cccc3C(F)(F)F)CC2)nc2ccccc12 [compound 488] | 1 (Class 1: The value of percent of control at 10^−7 M was less than 40% or the value of IC50 was less than 50 nM.)
20 | CN(C)c1nc(N[C@H]2CC[C@@H](CNC(=S)Nc3ccc(C(C)(C)C)cc3)CC2)nc2ccccc12 [compound 796] | 3 (Class 3: The value of percent of control at 10^−7 M was more than 60% or the value of IC50 was more than 200 nM.)
21 | CN(C)c1nc(N[C@H]2CC[C@@H](CNC(=O)NC(c3ccccc3)c3ccccc3)CC2)nc2ccccc12 [compound 573, N-[(cis-4-{[4-(dimethylamino)quinazolin-2-yl]amino}cyclohexyl)methyl]-N′-(diphenylmethyl)urea] | 1 (Class 1: The value of percent of control at 10^−7 M was less than 40% or the value of IC50 was less than 50 nM.)

Same assay, conditions: class by percent of control at 10^-7 M or by IC50; read-out: class

Row | IC50 [nM] | SMILES
22 | 50 to 200 | CN(C)c1nc(N[C@H]2CC[C@@H](NC(=O)NC3CCCCC3)CC2)nc2ccccc12 [compound 16, N-cyclohexyl-N′-(cis-4-{[4-(dimethylamino)quinazolin-2-yl]amino}cyclohexyl)urea]
23 | < 50 | CN(C)c1nc(N[C@H]2CC[C@@H](NC(=O)Nc3ccccc3[N+](=O)[O-])CC2)nc2ccccc12 [compound 113, N-(cis-4-{[4-(dimethylamino)quinazolin-2-yl]amino}cyclohexyl)-N′-(2-nitrophenyl)urea]
24 | > 200 | CN(C)c1nc(N[C@H]2CC[C@@H](NC(=O)NC34CC5CC(CC(C5)C3)C4)CC2)nc2ccccc12 (relative stereo) [compound 5]
25 | > 200 | CCC[C@H]1CC[C@H](c2ccc(NC(=S)N[C@H]3CC[C@@H](Nc4nc(N(C)C)c5ccccc5n4)CC3)cc2)CC1 [compound 177]
26 | 50 to 200 | CN(C)c1nc(N[C@H]2CC[C@@H](CNC(=S)NC3CC4CCC3C4)CC2)nc2ccccc12 (relative stereo) [compound 798]
27 | > 200 | CN(C)c1nc(N[C@H]2CC[C@@H](NC(=O)Nc3ccc4c(c3)CCC4)CC2)nc2ccccc12 [compound 839]
28 | > 200 | Cc1cccc([N+](=O)[O-])c1NC(=O)N[C@H]1CC[C@@H](Nc2nc(N(C)C)c3ccccc3n2)CC1 [compound 110]
29 | 50 to 200 | COC(=O)c1cccc(NC(=O)N[C@H]2CC[C@@H](Nc3nc(N(C)C)c4ccccc4n3)CC2)c1 [compound 128, methyl 3-({[(cis-4-{[4-(dimethylamino)quinazolin-2-yl]amino}cyclohexyl)amino]carbonyl}amino)benzoate]
30 | > 200 | CCCCCCCCOC(=O)NC[C@H]1CC[C@@H](Nc2nc(N(C)C)c3ccccc3n2)CC1 [compound 873]
31 | > 200 | Cc1ccc(Cl)c(NC(=O)N[C@H]2CC[C@@H](Nc3nc(N(C)C)c4ccccc4n3)CC2)c1 [compound 87]
32 | 50 to 200 | CSc1ccc(NC(=S)N[C@H]2CC[C@@H](Nc3nc(N(C)C)c4ccccc4n3)CC2)cc1 [compound 182, N-(cis-4-{[4-(dimethylamino)quinazolin-2-yl]amino}cyclohexyl)-N′-[4-(methylthio)phenyl]thiourea]

Row | SMILES | IC50 [nM]
33 | COc1ccccc1OC(=O)N[C@H]1CC[C@@H](Nc2nc(N(C)C)c3ccccc3n2)CC1 [compound 851] | > 200
34 | CN(C)c1nc(N[C@H]2CC[C@@H](NC(=O)Oc3cccc(C(F)(F)F)c3)CC2)nc2ccccc12 [compound 849] | > 200

Same assay, conditions: class by percent of control at 10^−7 M or by IC50; read-out: class

Row | IC50 [nM] | SMILES
35 | < 50 | CN(C)c1nc(N[C@H]2CC[C@@H](C(=O)NCc3cccc(Br)c3)CC2)nc2ccccc12 [Example 1160, cis-N-(3-bromobenzyl)-4-{[4-(dimethylamino)quinazolin-2-yl]amino}cyclohexanecarboxamide]
36 | < 50 | CN(C)c1nc(N[C@H]2CC[C@@H](C(=O)NCc3cc(F)cc(C(F)(F)F)c3)CC2)nc2ccccc12 [Example 1173, cis-4-{[4-(dimethylamino)quinazolin-2-yl]amino}-N-[3-fluoro-5-(trifluoromethyl)benzyl]cyclohexanecarboxamide]
37 | 50 to 200 | COc1ccc(NC(=O)NC[C@H]2CC[C@@H](Nc3nc(N(C)C)c4ccccc4n3)CC2)c(OC)c1 [Example 1019, N-(2,4-dimethoxyphenyl)-N′-[(cis-4-{[4-(dimethylamino)quinazolin-2-yl]amino}cyclohexyl)methyl]urea]
38 | 50 to 200 | COc1cccc(CNC(=O)[C@H]2CC[C@@H](Nc3nc(N(C)C)c4cc(F)c(F)cc4n3)CC2)c1 [Example 995, cis-4-{[4-(dimethylamino)-6,7-difluoroquinazolin-2-yl]amino}-N-(3-methoxybenzyl)cyclohexanecarboxamide]
